The values that follow come from patent publication US20020028938A1, “Prostaglandin endoperoxide H synthase biosynthesis inhibitors” (priority 1997, published 2002).

Experiment [1] has as its target T1, recombinant human Cox-1 (r-hu Cox1) (Homo sapiens, UniProt P23219).
T1 construct: made in house; host or cells: baculovirus/Sf9 insect cells (microsomes)
Put plainly: Recombinant human PGHS-1 enzyme assay (RHUCX1). The format is biochemical. To be noted: for inhibition at 100 µM: read-out: RHUCX1 % Inh. at Dose. As for the experimental part:
(§1) To compare the mean responses of the treatment groups, analysis of variance was applied. Percent inhibition values were determined by comparing the individual treatment mean values to the mean of the control group. Linear regression was used to estimate IC50's/ED50's in appropriate assays.
(§2) EIA reagents for prostaglandin determination were purchased from Perseptive Diagnostics, (Cambridge, Mass.). Prostaglandin E2 (PGE2) levels in lavage fluids were determined after the samples were dried under nitrogen and reconstituted with assay buffer. PGE2 levels in enzyme assays or cell culture media were measured against standards prepared in the same milieu. The immunoassays were conducted as recommended by the manufacturer. The EIA was conducted in 96 well microtiter plates (Nunc Roskilde, Denmark) and optical density was measured using a microplate reader (Vmax, Molecular Devices Corp., Menlo Park, Calif.).
(§3) Inhibition of prostaglandin biosynthesis in vitro was evaluated using recombinant human Cox-1 (r-hu Cox1) and Cox-2 (r-hu Cox-2) enzyme assays. […] The reaction was allowed to run for 2.5 minutes at room temperature prior to quenching with HCl and neutralization with NaOH. PGE2 production in the presence and absence of the drug was determined by EIA analysis. The EIA was conducted in 96 well microtiter plates (Nunc Roskilde, Denmark) and optical density was measured using a microplate reader (Vmax, Molecular Devices Corp., Menlo Park, Calif.). EIA reagents for prostaglandin determination were purchased from Perseptive Diagnostics (Cambridge, Mass.). PGE2 levels were measured against standards prepared in the same milieu. The immunoassays were conducted as recommended by the manufacturer.

Experiment [2] deals with T2, recombinant human Cox-2 (r-hu Cox-2) (Homo sapiens, UniProt P35354).
T2 construct: made in house; host or cells: baculovirus/Sf9 insect cells (microsomes)
T2 sequence (P35354 18-604): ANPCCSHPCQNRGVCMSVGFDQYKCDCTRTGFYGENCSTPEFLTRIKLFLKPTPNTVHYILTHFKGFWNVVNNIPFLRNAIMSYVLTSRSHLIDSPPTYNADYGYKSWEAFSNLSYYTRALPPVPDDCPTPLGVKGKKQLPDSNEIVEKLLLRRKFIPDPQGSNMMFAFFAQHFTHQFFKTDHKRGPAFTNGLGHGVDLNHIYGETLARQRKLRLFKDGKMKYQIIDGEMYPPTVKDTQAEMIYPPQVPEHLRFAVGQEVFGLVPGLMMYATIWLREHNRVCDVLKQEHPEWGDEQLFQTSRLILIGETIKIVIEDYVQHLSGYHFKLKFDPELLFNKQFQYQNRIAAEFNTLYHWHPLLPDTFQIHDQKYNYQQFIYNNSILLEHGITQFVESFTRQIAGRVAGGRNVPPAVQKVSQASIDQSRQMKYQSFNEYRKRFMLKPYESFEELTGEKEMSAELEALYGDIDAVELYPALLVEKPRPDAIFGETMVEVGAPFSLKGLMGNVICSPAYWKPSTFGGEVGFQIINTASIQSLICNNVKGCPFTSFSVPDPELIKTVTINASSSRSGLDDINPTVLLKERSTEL
Put plainly: Recombinant human PGHS-2 enzyme assay (RHUCX2). The format is biochemical. The conditions noted are these: for IC50: read-out: RHUCX2 IC50 (parenthetical value). As for the experimental part:
as §1, §2, §3

The mark [3] stands for this setting: 0.1 μM, read-out: RHUCX2 % Inh. at Dose.
Setting [4] is: 1 μM, read-out: RHUCX2 % Inh. at Dose.

T1 sequence (P23219 24-599): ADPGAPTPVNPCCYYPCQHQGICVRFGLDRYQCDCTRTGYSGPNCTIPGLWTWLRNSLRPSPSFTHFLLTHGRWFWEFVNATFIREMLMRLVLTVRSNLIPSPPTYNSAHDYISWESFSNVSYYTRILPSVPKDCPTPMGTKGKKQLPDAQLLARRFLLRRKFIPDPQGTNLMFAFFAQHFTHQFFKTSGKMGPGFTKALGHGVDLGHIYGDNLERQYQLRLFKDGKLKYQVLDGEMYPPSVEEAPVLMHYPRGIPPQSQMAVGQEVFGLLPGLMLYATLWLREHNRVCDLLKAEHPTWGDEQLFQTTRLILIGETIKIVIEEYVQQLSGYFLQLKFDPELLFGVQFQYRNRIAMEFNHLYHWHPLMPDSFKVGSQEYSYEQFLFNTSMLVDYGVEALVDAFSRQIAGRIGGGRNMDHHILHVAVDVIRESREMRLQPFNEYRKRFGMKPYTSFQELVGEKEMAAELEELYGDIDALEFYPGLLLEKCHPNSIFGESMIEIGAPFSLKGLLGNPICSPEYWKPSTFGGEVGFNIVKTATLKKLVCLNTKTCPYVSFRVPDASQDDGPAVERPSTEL

`CS(=O)(=O)c1ccc(-c2cnn(CC(F)=C(F)F)c(=O)c2-c2ccc(F)cc2)cc1` [Example 88]: in experiment [1] (100 μM), the “RHUCX1 % Inh. at Dose (μM)” value was 0 @ 100%. Further, the “RHUCX2 % Inh. at Dose (μM)” value is given as 35 @ 0.1% in experiment [2] (0.1 μM) and 97 @ 1,000% in experiment [2] (1,000 μM).
Consider `CC(C)=CCCOc1c(-c2ccc(S(C)(=O)=O)cc2)cnn(-c2ccc(F)cc2)c1=O` [Example 424], for which, in experiment [1] (100 μM), the “RHUCX1 % Inh. at Dose (μM)” value is reported as 7 @ 100%. Further, the “RHUCX2 % Inh. at Dose (μM)” value is 33 @ 0.01% in experiment [2] (0.01 μM), 58 @ 0.1% in experiment [2] (0.1 μM) and 75 @ 1% in experiment [2] (1 μM).
By IC50 is commonly meant the concentration that inhibits the measured activity by half. With `CS(=O)(=O)c1ccc(-c2cnn(CC(F)(F)F)c(=O)c2-c2ccc(C(F)(F)F)cc2)cc1` [Example 213, 2-(2,2,2-Trifluoroethyl)-4-(4-trifluoromethylphenyl)-5-[4-(methylsulfonyl)phenyl]-3(2H)-pridazinone], in experiment [1] (100 μM), the inhibition at 100 µM worked out at 0%. The IC50 in experiment [2] turned out to be 812 nM.
Turning to `C#CCn1ncc(-c2ccc(S(C)(=O)=O)cc2)c(-c2ccc(F)cc2)c1=O` [Example 48, 2-(Propargyl)-4-(4-fluorophenyl)-5-[4-(methylsulfonyl)phenyl]-3(2H)-prridazinone], the “RHUCX1 % Inh. at Dose (μM)” value in experiment [1] (100 μM) is given as 0 @ 100%. For the same compound, the “RHUCX2 % Inh. at Dose (μM)” value in experiment [2] (0.1 μM) is given as 2 @ 0.1%; in experiment [2] (1 μM), 73 @ 1%.
For the compound `CN(Cc1ccccc1)c1c(-c2ccc(S(C)(=O)=O)cc2)cnn(-c2cccc(Cl)c2)c1=O` [Example 354, 2-(3-Chlorophenyl)-4-(N-methylbenzylamnino)-5-[4-(methylsulfonyl)phenyl]-3(2H)-pyridazinone], in experiment [1] (100 μM), the “RHUCX1 % Inh. at Dose (μM)” value is “∠@ 100”. Besides, the “RHUCX2 % Inh. at Dose (μM)” value in experiment [2] (0.1 μM) is given as 36 @ 0.1%; in experiment [2] (1 μM) it was 45 @ 1%; in experiment [2] (10 μM) it was 45 @ 10%.
The matching figures for `CS(=O)(=O)c1ccc(-c2cnn(CC(F)(F)F)c(=O)c2Oc2cc(C(F)(F)F)ccc2F)cc1` [Example 263, 2-(2,2,2-Trifluoroethyl)-4-(2-fluoro-5-trifluoromethylphenoxy)-5-[4-(methylsulfonyl)phenyl]-3(2H)-pridazinone]: 1 @ 100%, 53 @ 0.1%, 76 @ 1% and 85 @ 10%.
On to `CS(=O)(=O)c1ccc(-c2cnn(-c3cccc(Cl)c3)c(=O)c2C2CCCC2)cc1` [Example 362, 2-(3-Chlorophenyl)-4-(cyclopentyl)-5-[4-(methylonylsulfonyl)phenyl]-(2H)-pyridazinone], for which the “RHUCX1 % Inh. at Dose (μM)” value in experiment [1] (100 μM) is 1 @ 100%. In addition, the “RHUCX2 % Inh. at Dose (μM)” value in experiment [2] (1 μM) was 49 @ 1%; in experiment [2] (10 μM), 84 @ 10%.
`CC(C)COc1c(-c2ccc(S(N)(=O)=O)c(F)c2)cnn(-c2cccc(Cl)c2)c1=O` [Example 412]: in experiment [1] (100 μM), the inhibition at 100 µM came out at 31%. For the same compound, the IC50 in experiment [2] stood at 2 nM.
Consider `CS(=O)(=O)c1ccc(-c2cnn(Cc3ccc(Cl)s3)c(=O)c2-c2ccc(F)cc2)cc1` [Example 42], for which the “RHUCX1 % Inh. at Dose (μM)” value in experiment [1] (100 μM) is 0 @ 100%. Moreover, the “RHUCX2 % Inh. at Dose (μM)” value is on record as 92 @ 0.1% in experiment [2] (0.1 μM) and 99 @ 1% in experiment [2] (1 μM).
With `CS(=O)(=O)c1ccc(-c2cnn(Cc3ccsc3)c(=O)c2-c2ccc(F)cc2)cc1` [Example 60], the “RHUCX1 % Inh. at Dose (μM)” value in experiment [1] (100 μM) is on record as 7 @ 100%. For the same compound, the “RHUCX2 % Inh. at Dose (μM)” value in experiment [2] (1,000 μM) is recorded as 100 @ 1,000%.
Take `CS(=O)(=O)c1ccc(-c2cnn(Cc3ccccc3)c(=S)c2-c2ccc(F)cc2)cc1` [Example 32, 2-Benzyl-4-(4-fluorophenyl)-5-[4-(methylsulfonyl)phenyl]-3(2H)-pridazinethione]: the “RHUCX1 % Inh. at Dose (μM)” value in experiment [1] (100 μM) is listed as 20 @ 100%. The “RHUCX2 % Inh. at Dose (μM)” value in experiment [2] (0.1 μM) is reported as 83 @ 0.1%; in experiment [2] (1 μM), 96 @ 1%.
The matching figures for `CS(=O)(=O)c1ccc(-c2cnn(-c3ccc(F)cc3)c(=O)c2C#Cc2ccccc2)cc1` [Example 231, 2-(4-Fluorophenyl)-4-(pheylethynyl)-5-[4-(methylsulfonl)phenyl]-3(2H)-pyridazinone]: 7 @ 100%, 68 @ 0.1% and 90 @ 1%.
For `NS(=O)(=O)c1ccc(-c2cnn(-c3cccc(Cl)c3)c(=O)c2CCc2ccccc2)cc1` [Example 393, 2-(3-Chlorophenyl)-4-(phenethyl)-5-[4-(aminosulfonyl)phenyl]-3(2H)-pyridazinone], the inhibition at 100 µM in experiment [1] (100 μM) came to 15%. Also, the inhibition at 0.1 µM in experiment [2] (setting [3]) amounted to 58%. In addition, in experiment [2] (setting [4]), the inhibition at 1 µM was 85%.
On to `CS(=O)(=O)c1ccc(-c2cnn(CC(F)(F)F)c(=O)c2OCCN2CCOCC2)cc1` [Example 273], for which, in experiment [1] (100 μM), the “RHUCX1 % Inh. at Dose (μM)” value is given as 16 @ 100%. In addition, the “RHUCX2 % Inh. at Dose (μM)” value in experiment [2] (1 μM) is on record as 42 @ 1%; in experiment [2] (10 μM), 54 @ 10%.
Consider `CC(C)CCCc1c(-c2ccc(S(C)(=O)=O)cc2)cnn(-c2cccc(Cl)c2)c1=O` [Example 421, 2-(3-Chlorophenyl)-4-(4-methylpentyl)-5-[4-(methylsulfonyl)phenyl]-3(2H)-pyridazinone], for which the IC50 in experiment [1] (read-out: RHUCX1 IC50 (parenthetical value)) stood at 269 nM. The inhibition at 0.01 µM in experiment [2] (0.01 μM, read-out: RHUCX2 % Inh. at Dose) turned out to be 38%. In addition, in experiment [2] (setting [3]), the inhibition at 0.1 µM was determined as 81%. Also, the inhibition at 1 µM in experiment [2] (setting [4]) is 92%.
For the compound “2-(2,2,2-Trifluoroethyl)-4-(4-methoxyphenoxy)-5-[4-(methylsulfonyl)phenyl]-3(2H)-pyridazinone [Example 262]”, the “RHUCX1 % Inh. at Dose (μM)” value in experiment [1] (100 μM) was 15 @ 100%. In addition, in experiment [2], the IC50 was determined as 432 nM.
Turning to `CS(=O)(=O)c1ccc(-c2cnn(-c3ccc(F)c(F)c3)c(=O)c2-c2cccs2)cc1` [Example 237, 2-(3,4-Difluorophenyl)-4-(2-thienyl)-5-[4-(methylsulfonyl)phenyl]-3(2H)-pridazinone], the “RHUCX1 % Inh. at Dose (μM)” value in experiment [1] (1 μM) was 44 @ 1%; in experiment [1] (10 μM) it was 54 @ 10%. Further, the “RHUCX2 % Inh. at Dose (μM)” value in experiment [2] (0.1 μM) was 89 @ 0.1%.
Turning to `CS(=O)(=O)c1ccc(-c2cnn(-c3ccoc3)c(=O)c2-c2ccc(F)cc2)cc1` [Example 183, 2-(3-Furyl)-4-(4-fluorophenyl)-5-[4-(methylsulfonyl)phenyl]-3(2H)-pyrdazinone], the “RHUCX1 % Inh. at Dose (μM)” value in experiment [1] (100 μM) is recorded as 25 @ 100%. The “RHUCX2 % Inh. at Dose (μM)” value is reported as 51 @ 0.1% in experiment [2] (0.1 μM) and 97 @ 1% in experiment [2] (1 μM).
The like results for “2-(3-Chlorophenyl)-4-(cyclopentylmethyl)-5-[4-(methylsulfonyl)phenyl]-3(2H)-pyridazinone [Example 364]” were, in that order, 0 @ 100%, 0 @ 0.1% and 86 @ 1%.
As for `CC1CCC(n2ncc(-c3ccc(S(C)(=O)=O)cc3)c(-c3ccc(F)cc3)c2=O)C1` (stereo not shown) [Example 133], in experiment [1] (100 μM), the “RHUCX1 % Inh. at Dose (μM)” value is recorded as 23 @ 100%. Moreover, in experiment [2], the IC50 is 358 nM.
In the case of `CS(=O)(=O)c1ccc(-c2cnn(-c3csc4ccccc34)c(=O)c2-c2ccc(F)cc2)cc1` [Example 107], the figures for the “RHUCX1 % Inh. at Dose (μM)” value in experiment [1] (1 μM) and in experiment [1] (10 μM) were 50 @ 1% and 88 @ 10%, respectively. For the same compound, the figures for the “RHUCX2 % Inh. at Dose (μM)” value in experiment [2] (0.1 μM) and in experiment [2] (1 μM) were 36 @ 0.1% and 86 @ 1%, respectively.
For `Cc1ccc(-c2c(-c3ccc(S(N)(=O)=O)cc3)cnn(-c3ccc(F)cc3)c2=O)cc1F` [Example 387], the “RHUCX1 % Inh. at Dose (μM)” value in experiment [1] (1 μM) was 60 @ 1%; in experiment [1] (10 μM) it was 57 @ 10%. The results for the “RHUCX2 % Inh. at Dose (μM)” value in experiment [2] (0.01 μM), in experiment [2] (0.1 μM) and in experiment [2] (1 μM) were 56 @ 0.01%, 65 @ 0.1% and 76 @ 1%, respectively.
`CC(C)CCOc1c(-c2ccc(S(N)(=O)=O)cc2)cnn(-c2ccc(F)cc2)c1=O` [Example 398, 2-(4-Fluorophenyl)-4-(3-methylbutoxy)-5-[4-(aminosulfonyl)phenyl]-3(2H)-pyrdazinone]: the inhibition at 100 µM in experiment [1] (100 μM) was determined as 26%. In experiment [2], the IC50 was 202 nM.
